Structures can show the parent of a compound that is named as a salt. Where two headings read alike, the source gives them in different places.
Columns and labels:
Syk kinase = target: T1, Syk kinase (Homo sapiens, UniProt P43405); experiment: Syk kinase biochemical fluorescence polarization assay; conditions: isolated Syk kinase, 11pt, read-out: fp_syk, 11pt
T1 construct: purchased Upstate, Lake Placid N.Y
Method: Many of the 2,4-pyrimidinediamine compounds were tested for the ability to inhibit Syk kinase catalyzed phosphorylation of a peptide substrate in a biochemical fluorescenced polarization assay with isolated Syk kinase. In this experiment, Compounds were diluted to 1% DMSO in kinase buffer (20 mM HEPES, pH 7.4, 5 mM MgCl2, 2 mM MnCl2, 1 mM DTT, 0.1 mg/mL acetylated Bovine Gamma Globulin). Compound in 1% DMSO (0.2% DMSO final) was mixed with ATP/substrate solution at room temperature. Syk kinase (Upstate, Lake Placid N.Y.) was added to a final reaction volume of 20 uL, and the reaction was incubated for 30 minutes at room temperature. […] EDTA (10 mM final)/anti-phosphotyrosine antibody (1× final)/fluorescent phosphopeptide tracer (0.5× final) was added in FP Dilution Buffer to stop the reaction for a total volume of 40 uL according to manufacturer's instructions (PanVera Corporation) The plate was incubated for 30 minutes in the dark at room temperature. Plates were read on a Polarion fluorescence polarization plate reader (Tecan). Data were converted to amount of phosphopeptide present using a calibration curve generated by competition with the phosphopeptide competitor provided in the Tyrosine Kinase Assay Kit, Green (PanVera Corporation).
In Tabe 1, all reported values are IC50s (in μM).

[1] = tested on: cultured human mast cells (CHMC), IgE-induced degranulation; experiment: CHMC low cell density IgE activation: tryptase assay; type: cell-based
Procedure, shortened: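 Cord-blood CD34+-derived mucosal mast cells (SCF/IL-6 medium), 1000–1500 cells/well, preincubated with compound 1 h at 37°C, then anti-IgE stimulated 30 min at 37°C.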

[2] = tested on: cultured human mast cells (CHMC), ionomycin-induced degranulation; experiment: CHMC low cell density ionomycin activation: tryptase assay; type: cell-based; conditions: read-out: LD Tryptase, CHMC, Iono, 3pt
[3] = low cell density CHMC, 3-point, read-out: LD Tryptase, CHMC, IgE, 3pt
[4] = low cell density CHMC, ionomycin activation, 3-point
[5] = low cell density CHMC, 8-point, read-out: LD Tryptase, CHMC, IgE, 8pt
[6] = low cell density CHMC, 3pt, read-out: LD Tryptase, CHMC, IgE, 3pt
[7] = low cell density CHMC, 8pt, read-out: LD Tryptase, CHMC, IgE, 8pt
[8] = low cell density CHMC, ionomycin activation (2 μM final), 3pt
[9] = Homo sapiens, Mast cell, low cell density CHMC, 8pt, read-out: LD Tryptase, CHMC, IgE, 8pt
[10] = Homo sapiens, Mast cell, low cell density CHMC, ionomycin activation (2 μM final), 3pt
[11] = CHMC low cell density, 3pt, read-out: LD Tryptase, CHMC, IgE, 3pt
[12] = CHMC low cell density, ionomycin activation, 3pt

Compound	IC50 [1, 3] [µM]	IC50 [2, 4] [µM]	IC50 [1, 5] [µM]	IC50 [1, 6] [µM]	IC50 [2, 8] [µM]	further results
COc1cc(Nc2ncc(F)c(Nc3ccc4c(c3)NC(C)(C)CO4)n2)cc(OC)c1 [Compound 203, N4-(3,4-Dihydro-3,3-dimethyl-2H,4H-benz[1,4]oxazin-6-yl)-N2-(3,5-dimethoxyphenyl)-5-fluoro-2,4-pyrimidinediamine]						IC50 (Syk kinase): < 10 µM
CC1(C)CNc2nc(Nc3nc(Cl)ncc3F)ccc2O1 [Compound 1051, 2-Chloro-N4-(3,4-dihydro-2,2-dimethyl-4H-5-pyrid[1,4]oxazin-6-yl)-5-fluoro-4-pyrimidinea mine]	> 10	> 10				
Cn1ncc2ccc(Nc3ncc(F)c(Nc4ccc5c(n4)NCC(C)(C)O5)n3)cc21 [Compound 1052, N4-(3,4-Dihydro-2,2-dimethyl-4H-5-pyrid[1,4]oxazin-6-yl)-5-fluoro-N2-(1-methylindazol-6-yl)-2,4-pyrimidinediamine]	< 10	< 10	< 10			
CNC(=O)COc1cccc(Nc2ncc(F)c(Nc3ccc4c(n3)NCC(C)(C)O4)n2)c1 [Compound 1053, N4-(3,4-Dihydro-2,2-dimethyl-4H-5-pyrid[1,4]oxazin-6-yl)-5-fluoro-N2-[3-(N-methylamino)carbonylmethyleneoxyphenyl]-2,4-pyrimidinediamine]	< 10	> 10	< 10			
CNC(=O)c1ccc(Nc2ncc(F)c(Nc3ccc4c(n3)NC(=O)C(C)(C)O4)n2)cc1Cl [Compound 1054, N2-[3-Chloro-4-(N-methylamino)carbonylphenyl]-N4-(2,2-dimethyl-3-oxo-4H-5-pyrid[1,4]oxazin-6-yl)-5-fluoro-2,4-pyrimidinediamine]	< 10	> 10	< 10			
CC1(C)Oc2ccc(Nc3nc(Nc4ccc5c(c4)OCCO5)ncc3F)nc2NC1=O [Compound 1055, N4-(2,2-Dimethyl-3-oxo-4H-5-pyrid[1,4]oxazin-6-yl)-N2-(3,4-ethylenedioxyphenyl)-5-fluoro-2,4-pyrimidinediamine]	< 10	> 10	< 10			
Cn1ncc2ccc(Nc3ncc(F)c(Nc4ccc5c(n4)NC(=O)C(C)(C)O5)n3)cc21 [Compound 1057, N4-(2,2-Dimethyl-3-oxo-4H-5-pyrid[1,4]oxazin-6-yl)-5-fluoro-N2-[1-methylindazol-6-yl]-2,4-pyrimidinediamine p-Toluenesulfonic Acid Salt]	< 10	> 10	< 10			
C[C@@H]1Oc2ccc(Nc3nc(Nc4cc(C(C)(C)C)[nH]n4)ncc3F)nc2NC1=O [Compound 1092, (S)—N2-(5-tert-Butyl-1H-pyrazol-3-yl)-5-fluoro-N4-(2-methyl-3-oxo-2H,4H-5-pyrid[1,4]oxazin-6-yl)-2,4-pyrimidinediamine]	< 10	> 10	< 10			
Fc1cnc(Cl)nc1Nc1ccc2c(n1)NCCO2 [Compound 1117, 2-Chloro-5-fluoro-N4-(3,4-dihydro-2H,4H-5-pyrid[1,4]oxazin-6-yl)-4-pyrimidineamine]	> 10	> 10				
Fc1cnc(Nc2ccc(N3CCOCC3)cc2)nc1Nc1ccc2c(n1)NCCO2 [Compound 1128, N4-(3,4-Dihydro-2H,4H-5-pyrid[1,4]oxazin-6-yl)-5-fluoro-N2-(4-morpholinophenyl)-2,4-pyrimidinediamine]		> 10	< 10			
CN1CCN(c2ccc(Nc3ncc(F)c(Nc4ccc5c(n4)NCCO5)n3)cc2)CC1 [Compound 1141, N4-(3,4-Dihydro-2H,4H-5-pyrid[1,4]oxazin-6-yl)-5-fluoro-N2-[4-(4-methylpiperazino)phenyl]-2,4-pyrimidinediamine]	< 10	> 10	< 10			
CN1CCN(c2cccc(Nc3ncc(F)c(Nc4ccc5c(n4)NCCO5)n3)c2)CC1 [Compound 1142, N4-(3,4-Dihydro-2H,4H-5-pyrid[1,4]oxazin-6-yl)-5-fluoro-N2-[3-(4-methylpiperazino)phenyl]-2,4-pyrimidinediamine]				< 10	> 10	IC50 [1, 7]: < 10 µM
Fc1cnc(Nc2cccc(-c3ncco3)c2)nc1Nc1ccc2c(n1)NCCO2 [Compound 1143, N4-(3,4-Dihydro-2H,4H-5-pyrid[1,4]oxazin-6-yl)-5-fluoro-N2-[3-(oxazol-2-yl)phenyl]-2,4-pyrimidinediamine]				< 10	> 10	IC50 [1, 7]: < 10 µM
COc1ccc(Nc2ncc(F)c(Nc3ccc4c(n3)NCCO4)n2)cc1Cl [Compound 1146, N2-(3-Chloro-4-methoxyphenyl)-N4-(3,4-dihydro-2H,4H-5-pyrid[1,4]oxazin-6-yl)-5-fluoro-2,4-pyrimidinediamine]				< 10	> 10	
COC(=O)C=NC(=O)c1ccc(Nc2ncc(F)c(Nc3ccc4c(c3)NC(=O)[C@H](C)O4)n2)cc1 [Compound 1271, (S)-5-Fluoro-N2-[4-(N-methoxycarbonylmethyleneamino)carbonylphenyl]-N4-(2-methyl-3-oxo-2H,4H-benz[1,4]oxazin-6-yl)-2,4-pyrimidinediamine]						IC50 [1, 9]: < 10 µM; IC50 [2, 10]: > 10 µM
COC(=O)C=NC(=O)c1ccc(Nc2ncc(F)c(Nc3ccc4c(c3)NC(=O)[C@@H](C)O4)n2)cc1 [Compound 1272, (R)-5-Fluoro-N2-[4-(N-methoxycarbonylmethyleneamino)carbonylphenyl]-N4-(2-methyl-3-oxo-2H,4H-benz[1,4]oxazin-6-yl)-2,4-pyrimidinediamine]						IC50 [1, 9]: < 10 µM; IC50 [2, 10]: > 10 µM
CNC(=O)CNC(=O)c1ccc(Nc2ncc(F)c(Nc3ccc4c(c3)NC(=O)C(C)(C)O4)n2)cc1 [Compound 1295, N4-(2,2-Dimethyl-3-oxo-4H-benz[1,4]oxazin-6-yl)-5-fluaro-N2-[4-[N-(N-methylamino)carbonylmethylene]aminocarbonylphenyl]-2,4-pyrimidinediamine]				< 10	> 10	IC50 [1, 7]: < 10 µM
CNC(=O)CNC(=O)c1ccc(Nc2ncc(F)c(Nc3ccc4c(c3)NC(=O)[C@H](C)O4)n2)cc1 [Compound 1296, (S)-5-Fluoro-N2-[4-[N-(N-methylamino)carbonylmethylene]aminocarbonylphenyl]-N4-(2-methyl-3-oxo-2H,4H-benz[1,4]oxazin-6-yl)-2,4-pyrimidinediamine]				< 10	> 10	IC50 [1, 7]: < 10 µM
CC(C)(C)OC(=O)NCC(=O)NCc1ccc(Nc2ncc(F)c(Nc3ccc4c(c3)NC(=O)C(C)(C)O4)n2)cc1 [Compound 1307, N2-[4-[1-(tert-Butoxycarbonylamino)methylenecarbonylamino]methylphenyl]-N4-(2,2-dimethyl-3-oxo-4H-benz[1,4]oxazin-6-yl)-5-fluoro-2,4-pyrimidinediamine]				< 10	< 10	IC50 [1, 7]: < 10 µM
C[C@@H]1Oc2ccc(Nc3nc(Nc4ccc(CNC(=O)CNC(=O)OC(C)(C)C)cc4)ncc3F)cc2NC1=O [Compound 1308, (S)—N2-[4-[1-(tert-Butoxycarbonylamino)methylenecarbonylamino]methylphenyl]-5-fluoro-N4-(2-methyl-3-oxo-2H,4H-benz[1,4]oxazin-6-yl)-2,4-pyrimidinediamine]				< 10	< 10	IC50 [1, 7]: < 10 µM
CC(C)(C)OC(=O)NCC(=O)NCc1ccc(Nc2ncc(F)c(Nc3ccc4c(c3)NC(=O)C(F)(F)O4)n2)cc1 [Compound 1309, N2-[4-[1-(tert-Butoxycarbonylamino)methylenecarbonylamino]methylphenyl]-N4-(2,2-difluoro-3-oxo-4H-benz[1,4]oxazin-6-yl)-5-fluoro-2,4-pyrimidinediamine]				< 10	> 10	IC50 [1, 7]: < 10 µM
N2-(3-Chloro-4-methoxyphenyl)-N4-(2,2-dimethyl-3-oxo-4H-benz[1,4]oxazin-6-yl)-5-fluoro-N4-methyl-2,4-pyrimidinediamine [Compound 394]						IC50 [1, 11]: < 10 µM; IC50 [2, 12]: < 10 µM
N2-(Bis-2-hydroxyethyl)-N4-(3,4-ethylenedioxyphenyl)-5-fluoro-N4-methyl-2,4-pyrimidinediamine [Compound 492]						IC50 [1, 11]: > 10 µM; IC50 [2, 12]: > 10 µM
N4-(2,2-Difluoro-3-oxo-4H-benz[1,4]oxazin-6-yl)-5-fluoro-N2-[4-[N-(N-methylamino)carbanylmethylene]aminocarbonyl phenyl]-2,4-pyrimidinediamine [Compound 1297]				< 10	> 10	

From patent publication US7560466B2, “Methods of treating or preventing autoimmune diseases with 2,4-pyrimidinediamine compounds” (Rigel Pharmaceuticals, Inc., priority 2003, dated 2009)
